Results taken from publication PMC5737456 (Pain, 2017).

Tests used:
Assay type in all cases: cell-based
[1] = target: T1, mouse TRESK (mTRESK) (Mus musculus, UniProt Q6VV64); assay: whole-cell patch clamp dose-response
T1 sequence (Q6VV64 1-394): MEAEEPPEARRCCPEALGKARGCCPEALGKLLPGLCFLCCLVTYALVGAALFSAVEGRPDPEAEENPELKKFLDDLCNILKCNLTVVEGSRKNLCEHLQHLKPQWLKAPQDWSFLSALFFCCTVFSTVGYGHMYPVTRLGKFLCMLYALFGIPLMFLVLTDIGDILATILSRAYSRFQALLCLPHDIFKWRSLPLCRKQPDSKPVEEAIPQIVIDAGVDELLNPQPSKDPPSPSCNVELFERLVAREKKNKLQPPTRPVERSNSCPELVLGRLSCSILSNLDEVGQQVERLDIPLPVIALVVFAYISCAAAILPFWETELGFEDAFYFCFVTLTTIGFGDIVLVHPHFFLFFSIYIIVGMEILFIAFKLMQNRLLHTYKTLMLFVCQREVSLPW

[2] = target: T2, human TRESK (hTRESK) (Homo sapiens, UniProt Q7Z418); assay: whole-cell patch clamp in transfected HEK293 cells, dose-response
T2 sequence (Q7Z418 1-384): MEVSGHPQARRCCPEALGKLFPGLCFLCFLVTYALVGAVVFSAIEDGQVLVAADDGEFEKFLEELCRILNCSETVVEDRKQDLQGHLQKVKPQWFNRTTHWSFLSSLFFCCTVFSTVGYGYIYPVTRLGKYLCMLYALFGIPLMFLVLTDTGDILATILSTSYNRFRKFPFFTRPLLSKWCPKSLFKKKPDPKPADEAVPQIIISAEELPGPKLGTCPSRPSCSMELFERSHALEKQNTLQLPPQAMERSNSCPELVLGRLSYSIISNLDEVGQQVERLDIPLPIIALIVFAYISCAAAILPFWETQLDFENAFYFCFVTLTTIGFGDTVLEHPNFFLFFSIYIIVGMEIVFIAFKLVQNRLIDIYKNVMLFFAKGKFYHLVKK

[3] = target: T3, human TREK-2 (hTREK-2) (Homo sapiens, UniProt P57789); assay: as above
T3 sequence (P57789 1-538): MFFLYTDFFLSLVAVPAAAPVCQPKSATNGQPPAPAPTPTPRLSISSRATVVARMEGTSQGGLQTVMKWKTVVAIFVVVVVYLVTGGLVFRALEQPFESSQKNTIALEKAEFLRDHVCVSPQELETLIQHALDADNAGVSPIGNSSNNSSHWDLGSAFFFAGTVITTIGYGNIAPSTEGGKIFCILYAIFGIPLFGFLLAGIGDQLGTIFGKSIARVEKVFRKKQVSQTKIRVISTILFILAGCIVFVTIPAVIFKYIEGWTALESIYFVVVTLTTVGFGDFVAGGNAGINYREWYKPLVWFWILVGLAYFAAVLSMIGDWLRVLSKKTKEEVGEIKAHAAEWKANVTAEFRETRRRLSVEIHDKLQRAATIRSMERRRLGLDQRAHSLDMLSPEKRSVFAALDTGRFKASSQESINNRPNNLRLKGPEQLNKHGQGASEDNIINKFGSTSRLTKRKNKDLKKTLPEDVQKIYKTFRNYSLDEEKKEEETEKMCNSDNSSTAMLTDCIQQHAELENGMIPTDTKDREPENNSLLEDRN

[4] = target: T4, rat TRESK (Rattus norvegicus, UniProt Q6Q1P3); assay: whole-cell patch clamp in transfected HEK293 cells, […]
T4 sequence (Q6Q1P3 1-405): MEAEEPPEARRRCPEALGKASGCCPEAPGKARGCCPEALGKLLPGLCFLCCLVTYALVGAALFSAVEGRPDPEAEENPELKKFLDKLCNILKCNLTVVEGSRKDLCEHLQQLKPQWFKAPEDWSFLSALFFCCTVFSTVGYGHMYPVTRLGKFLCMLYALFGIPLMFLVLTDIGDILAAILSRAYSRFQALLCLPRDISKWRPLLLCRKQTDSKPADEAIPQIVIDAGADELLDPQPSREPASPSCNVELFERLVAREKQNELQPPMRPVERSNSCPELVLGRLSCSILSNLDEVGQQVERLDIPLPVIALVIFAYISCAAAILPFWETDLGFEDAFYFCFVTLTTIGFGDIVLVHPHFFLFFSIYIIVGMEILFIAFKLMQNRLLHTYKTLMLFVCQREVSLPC

[5] = target: T5, mouse TRAAK (mTRAAK) (Mus musculus, UniProt O88454); assay: whole-cell patch clamp in transfected HEK293 cells, dose-response
T5 sequence (O88454 1-398): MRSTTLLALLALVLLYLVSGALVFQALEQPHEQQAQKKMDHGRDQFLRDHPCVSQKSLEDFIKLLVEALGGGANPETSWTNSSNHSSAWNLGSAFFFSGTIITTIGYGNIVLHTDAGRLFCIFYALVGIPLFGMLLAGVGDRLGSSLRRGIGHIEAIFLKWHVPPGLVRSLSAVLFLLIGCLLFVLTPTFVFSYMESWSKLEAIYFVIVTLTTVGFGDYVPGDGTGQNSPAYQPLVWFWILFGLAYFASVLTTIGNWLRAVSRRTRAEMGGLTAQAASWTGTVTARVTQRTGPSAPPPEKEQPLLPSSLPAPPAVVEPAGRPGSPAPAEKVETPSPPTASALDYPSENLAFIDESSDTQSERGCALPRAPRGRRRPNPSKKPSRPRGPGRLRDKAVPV

[6] = target: T2, human TRESK (hTRESK); assay: whole-cell patch clamp in transfected HEK293 cells, single concentration […]; details: HEK293, read-out: % inhibition at 20 μM

SMILES	IC50 [1] [µM]	IC50 [2] [µM]	IC50 [3] [µM]	whole-cell patch clamp in transfected HEK293 cells, 20 μM [4]	IC50 [5] [µM]	inhibition at 20 µM [6] [%]
CC(C)=CC1C(C(=O)OCN2C(=O)C3=C(CCCC3)C2=O)C1(C)C (stereo not shown) [TM, Tetramethrin]	34.9	10.7	75.6	TM was also tested on rat and mouse TRESK orthologs, with similar inhibitory effects	12.6	
CC1(C)[C@H](C(=O)O[C@H](C#N)c2cccc(Oc3ccccc3)c2)[C@@H]1C=C(Br)Br [DM, deltamethrin]						30
CC1(C)C(C=C(Cl)Cl)C1C(=O)OCc1cccc(Oc2ccccc2)c1 (stereo not shown) [PM, permethrin]						27
